This is an account of results in patent US20260217652A1, “PHENYL-SUBSTITUTED HETEROARYL COMPOUND AND PHARMACEUTICAL COMPOSITION COMPRISING SAME, PREPARATION METHOD THEREFOR AND USE THEREOF” (SHANGHAI MEIYUE BIOTECH DEVELOPMENT CO., LTD., priority 2023, published 2026).

The target of the assay is T1, p38 MAPK/MK2 (Homo sapiens, UniProt Q16539).
T1 construct: purchased Carna (p38α); Abcam (MK2) 04-152; 79910
T1 sequence (Q16539 whole entry): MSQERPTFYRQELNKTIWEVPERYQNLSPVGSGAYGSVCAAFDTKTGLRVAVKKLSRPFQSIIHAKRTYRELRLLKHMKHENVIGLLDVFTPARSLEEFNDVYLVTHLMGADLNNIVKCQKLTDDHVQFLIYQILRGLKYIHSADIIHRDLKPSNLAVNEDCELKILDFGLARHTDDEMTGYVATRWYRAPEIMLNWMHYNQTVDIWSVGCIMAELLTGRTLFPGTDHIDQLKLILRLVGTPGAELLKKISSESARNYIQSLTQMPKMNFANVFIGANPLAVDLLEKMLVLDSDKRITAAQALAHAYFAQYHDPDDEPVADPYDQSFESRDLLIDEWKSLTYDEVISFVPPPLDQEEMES
T1 sequence (P49137 whole entry partner): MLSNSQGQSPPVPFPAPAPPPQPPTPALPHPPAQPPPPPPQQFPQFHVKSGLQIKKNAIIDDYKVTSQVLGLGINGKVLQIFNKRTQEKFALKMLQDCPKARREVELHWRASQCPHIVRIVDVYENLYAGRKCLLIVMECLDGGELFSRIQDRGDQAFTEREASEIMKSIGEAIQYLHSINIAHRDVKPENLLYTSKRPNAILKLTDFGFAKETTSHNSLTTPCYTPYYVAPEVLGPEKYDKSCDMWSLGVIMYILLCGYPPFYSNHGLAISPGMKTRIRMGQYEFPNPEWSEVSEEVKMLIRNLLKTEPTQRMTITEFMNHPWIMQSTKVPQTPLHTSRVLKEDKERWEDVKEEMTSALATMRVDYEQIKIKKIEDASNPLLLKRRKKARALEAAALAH
The assay can be described thus: In vitro activity assay of p38 MAPK/MK2 (Z-LYTE kinase assay kit). Format: biochemical. To be noted: active p38α, inactive MK2, Ser/Thr 4; 1-hour reaction at 20° C. The procedure:
The inhibitory effect of the compound on p38 MAPK/MK2 was evaluated using the Z-LYTE kinase assay kit (Thermo, PV3177). The test compound was dissolved in DMSO to obtain a 10 mM stock solution and stored at −20° C. for future use. The initial concentration of the compound was […], with 1% DMSO, 5-fold serial dilution, 8 concentrations, and duplicate wells. […] After a 1-hour reaction at 20° C., Development Reagent A diluted 2048-fold was added to each well, followed by incubation at room temperature for 1 hour. The reaction was terminated by adding 5 μL of stop buffer, and the plate was read using a microplate reader (Ex. 400 nm, Em. 445 nm; Ex. 400 nm, Em. 520 nm). The concentration-effect curve was fitted using GraphPad Prism 8 software, and the compound concentration resulting in 50% inhibition, IC50, was calculated.
The compound `CNC(=O)C(C)(O)c1cccc(-c2cc(-n3c(C)cc(OCc4ncc(F)cc4F)c(Cl)c3=O)c(C)cn2)c1F` (single isomer, unassigned) [Compound 121-P1] returned an IC50 of 6.81 nM.
Then `CNCC(C)(O)c1cccc(-c2cc(-n3c(C)cc(OCc4ncc(F)cc4F)c(Cl)c3=O)c(C)cn2)c1F` (centres unmarked) [Compound 150], with 8.59 nM.
To `Cc1cnc(-c2ccc(F)c(C(C)(O)C(N)=O)c2F)cc1-n1c(C)cc(OCc2ncc(F)cc2F)c(Cl)c1=O` (single isomer, unassigned) [Compound 125-P1] belongs 0.41 nM.
Then `Cc1cnc(-c2ccc(Cl)c([C@](C)(O)CO)c2)c(F)c1-n1c(C)cc(OCc2ncc(F)cc2F)c(Cl)c1=O` [Compound 53-1], with 1.2 nM; and `Cc1cnc(-c2cccc([C@](C)(O)CO)c2Cl)c(F)c1-n1c(C)cc(OCc2ncc(F)cc2F)c(Cl)c1=O` [Compound 62-P1], with 0.35 nM; and `Cc1cc(OCc2ncc(F)cc2F)c(Cl)c(=O)n1-c1ccnc(-c2cccc(C3(CO)CC3)c2F)c1` [Compound 156], with 0.336 nM.
Turning to `Cc1cnc(-c2cc(F)cc([C@](C)(O)CO)c2F)cc1-n1c(C)cc(OCc2ncc(F)cc2F)c(Cl)c1=O` [Compound 110-1], the IC50 turned out to be 1.94 nM.
Then `Cc1cnc(-c2cccc(C(C)(O)C(N)=O)c2F)cc1-n1c(C)cc(OCc2ncc(F)cc2F)c(Cl)c1=O` (single isomer, unassigned) [Compound 126-P1], with 1.68 nM; and `Cc1cnc(-c2cc([C@@](C)(O)CO)ccc2Cl)c(F)c1-n1c(C)cc(OCc2ncc(F)cc2F)c(Cl)c1=O` [Compound 107-P1], with 4.99 nM.
Then `Cc1cnc(-c2ccc(Cl)c([C@@](C)(O)CO)c2)c(F)c1-n1c(C)cc(OCc2ncc(F)cc2F)c(Cl)c1=O` [Compound 53-2], with 3.02 nM; and `Cc1cnc(-c2ccc(F)c([C@@](C)(O)CO)c2)c(F)c1-n1c(C)cc(OCc2ncc(F)cc2F)c(Cl)c1=O` (single isomer, unassigned) [Compound 51-P1], with 1.83 nM.
`Cc1cnc(-c2cccc(C(N)=O)c2F)cc1-n1c(C)cc(OCc2ncc(F)cc2F)c(Cl)c1=O` [Compound 21-P2] displayed a 50% inhibitory concentration (IC50) of 0.51 nM.
Compound `COc1cnc(-c2cccc([C@@](C)(O)CO)c2F)cc1-n1c(C)cc(OCc2ncc(F)cc2F)c(Cl)c1=O` [Compound 154] gave an IC50 of 20.6 nM.
In turn, `Cc1cnc(-c2ccc(F)c([C@](C)(O)CO)c2F)cc1-n1c(C)cc(OCc2ncc(F)cc2F)c(Cl)c1=O` (single isomer, unassigned) [Compound 65-P2] came in with a 50% inhibitory concentration (IC50) of 0.4 nM.
Then `Cc1cc(OCc2ncc(F)cc2F)c(Cl)c(=O)n1-c1ccnc(-c2ccc(F)c([C@@](C)(O)CO)c2F)c1` [Compound 144], with 12.6 nM; and `Cc1cnc(-c2cccc(C3(O)CC3)c2)c(F)c1-n1c(C)cc(OCc2ncc(F)cc2F)c(Cl)c1=O` [Compound 136], with 26.2 nM.
In turn, `Cc1cnc(-c2ccc3c(c2)C(C)(C)NC3=O)c(F)c1-n1c(C)cc(OCc2ncc(F)cc2F)c(Cl)c1=O` [Compound 129] displayed an IC50 of 19.9 nM.
`CNC(=O)C(C)(O)c1c(F)ccc(-c2cc(-n3c(C)cc(OCc4ncc(F)cc4F)c(Cl)c3=O)c(C)cn2)c1F` (single isomer, unassigned) [Compound 116-P4] displayed an IC50 of 0.14 nM.
To `CNC(=O)C(C)(O)c1cccc(-c2cc(-n3c(C)cc(OCc4ncc(F)cc4F)c(Cl)c3=O)c(C)cn2)c1F` (single isomer, unassigned) [Compound 121-P2] belongs 2.83 nM; to `Cc1cc(OCc2ncc(F)cc2F)c(Cl)c(=O)n1-c1ccnc(-c2cccc([C@@](C)(O)CO)c2F)c1` [Compound 143], 18.1 nM.
To `Cc1cnc(-c2cccc(C(C)(O)C(N)=O)c2F)cc1-n1c(C)cc(OCc2ncc(F)cc2F)c(Cl)c1=O` (single isomer, unassigned) [Compound 126-P3] belongs 0.28 nM.
To `COC[C@](C)(O)c1cccc(-c2cc(-n3c(C)cc(OCc4ncc(F)cc4F)c(Cl)c3=O)c(C)cn2)c1F` [Compound 148-P1] belongs 15.9 nM; to `CC[C@](O)(CO)c1cccc(-c2cc(-n3c(C)cc(OCc4ncc(F)cc4F)c(Cl)c3=O)c(C)cn2)c1F` [Compound 147], 7.94 nM; to `Cc1cnc(-c2cccc(C(C)(C)O)c2F)cc1-n1c(C)cc(OCc2ncc(F)cc2F)c(Cl)c1=O` [Compound 101], 0.93 nM.
For `Cc1cnc(-c2cc([C@@](C)(O)CO)ccc2F)c(F)c1-n1c(C)cc(OCc2ncc(F)cc2F)c(Cl)c1=O` [Compound 106-P1], half-maximal inhibition (IC50) required 7.73 nM.
Then `Cc1cnc(-c2cccc([C@@](C)(O)CO)c2Cl)c(F)c1-n1c(C)cc(OCc2ncc(F)cc2F)c(Cl)c1=O` [Compound 62-P3], with 0.058 nM; and `Cc1cnc(-c2ccc3c(c2F)C(C)(C)NC3=O)cc1-n1c(C)cc(OCc2ncc(F)cc2F)c(Cl)c1=O` [Compound 134], with 39.9 nM.
To `CNC(=O)C(C)(O)c1c(F)ccc(-c2cc(-n3c(C)cc(OCc4ncc(F)cc4F)c(Cl)c3=O)c(C)cn2)c1F` (single isomer, unassigned) [Compound 116-P2] belongs 2.26 nM; to `Cc1cnc(-c2cccc(C(=O)N3CC(C)(O)C3)c2)cc1-n1c(C)cc(OCc2ncc(F)cc2F)c(Cl)c1=O` [Compound 10], 60.5 nM; to `Cc1cnc(-c2cccc([C@](C)(O)CO)c2Cl)cc1-n1c(C)cc(OCc2ncc(F)cc2F)c(Cl)c1=O` [Compound 37-1], 4.66 nM.
Then `Cc1cnc(-c2cccc(C(C)(C)O)c2O)cc1-n1c(C)cc(OCc2ncc(F)cc2F)c(Cl)c1=O` [Compound 102], with 0.15 nM; and `Cc1cnc(-c2cccc(C3(O)CC3)c2F)cc1-n1c(C)cc(OCc2ncc(F)cc2F)c(Cl)c1=O` [Compound 135], with 13 nM; and `Cc1cnc(-c2ccc3c(c2)C(C)(O)C(=O)N3)c(F)c1-n1c(C)cc(OCc2ncc(F)cc2F)c(Cl)c1=O` (single isomer, unassigned) [Compound 115-P1], with 0.14 nM.
With `Cc1cnc(-c2cccc(C(C)(O)CO)c2F)cc1-n1c(C)cc(OCc2ncc(F)cc2F)c(Cl)c1=O` (centres unmarked) [Compound 35], half-maximal inhibition (IC50) required 2.39 nM.
Then `Cc1cc(OCc2ncc(F)cc2F)c(Cl)c(=O)n1-c1ccnc(-c2ccc(F)c(C(C)(C)O)c2F)c1` [Compound 142], with 3.37 nM.
Then `Cc1cnc(-c2cccc([C@@](C)(O)CO)c2)cc1-n1c(C)cc(OCc2ncc(F)cc2F)c(Cl)c1=O` [Compound 87-P1], with 8.54 nM; and `COC[C@](C)(O)c1c(F)ccc(-c2cc(-n3c(C)cc(OCc4ncc(F)cc4F)c(Cl)c3=O)c(C)cn2)c1F` (atropisomer, axis not shown) [Compound 149], with 2.25 nM.
The compound `Cc1cnc(-c2cccc(C(=O)NOCCO)c2)cc1-n1c(C)cc(OCc2ncc(F)cc2F)c(Cl)c1=O` [Compound 7] displayed an IC50 of 87.5 nM.
To `Cc1cnc(-c2ccc(F)c(C(C)(O)C(N)=O)c2F)cc1-n1c(C)cc(OCc2ncc(F)cc2F)c(Cl)c1=O` (single isomer, unassigned) [Compound 125-P3] belongs 0.28 nM; to `Cc1cnc(-c2ccc(F)c([C@@](C)(O)CO)c2F)cc1-n1c(C)cc(OCc2ncc(F)cc2F)c(Cl)c1=O` (single isomer, unassigned) [Compound 65-2], 1.86 nM; to `Cc1cnc(-c2ccc(F)c(C(C)(O)C(=O)O)c2)c(F)c1-n1c(C)cc(OCc2ncc(F)cc2F)c(Cl)c1=O` (centres unmarked) [Compound 138-1], 1.21 nM.
`Cc1ccc(-c2ncc(C)c(-n3c(C)cc(OCc4ncc(F)cc4F)c(Cl)c3=O)c2F)cc1[C@@](C)(O)CO` [Compound 52-P1] showed a half-inhibitory concentration (IC50) of 0.12 nM.
Then `Cc1cnc(-c2ccc(F)c([C@](C)(O)CO)c2F)cc1-n1c(C)cc(OCc2ncc(F)cc2F)c(Cl)c1=O` (single isomer, unassigned) [Compound 65-1], with 1.27 nM; and `CNCC(C)(O)c1cc(-c2ncc(C)c(-n3c(C)cc(OCc4ncc(F)cc4F)c(Cl)c3=O)c2F)ccc1F` (centres unmarked) [Compound 139], with 53 nM.
Then `Cc1cnc(-c2cccc(C(=O)NO)c2)cc1-n1c(C)cc(OCc2ncc(F)cc2F)c(Cl)c1=O` [Compound 5], with 90.3 nM.
To `CNC(=O)c1cc(-c2cc(-n3c(C)cc(OCc4ncc(F)cc4F)c(Cl)c3=O)c(C)cn2)ccc1F` [Compound 17] belongs 87.9 nM.
`Cc1cnc(-c2cccc([C@](C)(O)CO)c2F)cc1-n1c(C)cc(OCc2ncc(F)cc2F)c(Cl)c1=O` [Compound 35-P2] had a 50% inhibitory concentration (IC50) of 0.71 nM.
To `Cc1cnc(-c2cc(F)cc([C@@](C)(O)CO)c2F)cc1-n1c(C)cc(OCc2ncc(F)cc2F)c(Cl)c1=O` [Compound 110-P1] belongs 0.7 nM.
To `COc1cnc(-c2cccc(C(C)(C)O)c2F)cc1-n1c(C)cc(OCc2ncc(F)cc2F)c(Cl)c1=O` [Compound 155] belongs 3.49 nM; to `Cc1cnc(-c2ccc3c(c2)C(C)(O)C(=O)N3)c(F)c1-n1c(C)cc(OCc2ncc(F)cc2F)c(Cl)c1=O` (single isomer, unassigned) [Compound 115-P2], 0.7 nM.
